Data reported in US9365494B2, “Process for synthesis of amino-methyl tetralin derivatives” (Roche Palo Alto LLC, priority 2008, dated 2016).

Columns and labels:
[1] = target: T1, recombinant human 5-HT6 receptor (Homo sapiens, UniProt P50406); test: Radioligand binding studies, 5-HT6 ligand affinity by competing for binding of [3H]LSD; conditions: [3H]LSD competition; membranes of HEK293 cells stably expressing the receptor; pH 7.4, 37° C., 75 min; duplicate determinations; read-out: pKi for 5-HT6 (converted)
T1 construct: expressed in transfected cells; membranes)
Experimental: The binding activity of compounds of this invention in vitro was determined as follows. Duplicate determinations of 5-HT6 ligand affinity were made by competing for binding of [^3H]LSD in cell membranes derived from HEK293 cells stably expressing recombinant human 5-HT6 receptor. Duplicate determinations of 5-HT2A ligand affinity were made by competing for binding of [^3H]Ketanserin (3-(2-(4-(4-fluorobenzoyl)piperidinol)ethyl)-2,4(1H,3H)-quinazolinedione) in cell membranes derived from CHO-K1 cells stably expressing recombinant human 5-HT2A receptor. Membranes were prepared from HEK 293 cell lines by the method described by Monsma et al., Molecular Pharmacology, Vol. 43 pp. 320-327 (1993), and from CHO-K^1 cell lines as described by Bonhaus et al., Br J. Pharmacol. June; 115(4):622-8 (1995).
For estimation of affinity at the 5-HT6 receptor, all determinations were made in assay buffer containing 50 mM Tris-HCl, 10 mM MgSO4, 0.5 mM EDTA, 1 mM ascorbic acid, pH 7.4 at 37° C., in a 250 microliter reaction volume. For estimation of affinity at the 5-HT2A receptor all determinations were made in assay buffer containing 50 mM Tris-HCl, 5 mM ascorbic acid, 4 mM CaCl2, pH 7.4 at 32° C., in a 250 microliter reaction volume.
Assay tubes containing [^3H] LSD or [^3H]Ketanserin (5 nM), competing ligand, and membrane were incubated in a shaking water bath for 75 min. at 37° C. (for 5-HT6) or 60 min. at 32° C. (for 5-HT2A), filtered onto Packard GF-B plates (pre-soaked with 0.3% PEI) using a Packard 96 well cell harvester and washed 3 times in ice cold 50 mM Tris-HCl. Bound [^3H] LSD or [^3H]Ketanserin were determined as radioactive counts per minute using Packard TopCount.
Displacement of [^3H]LSD or [^3H]Ketanserin from the binding sites was quantified by fitting concentration-binding data to a 4-parameter logistic equation:
[formula] where Hill is the Hill slope, [ligand] is the concentration of competing radioligand and IC50 is the concentration of radioligand producing half-maximal specific binding of radioligand. […]

T1 sequence (P50406 whole entry): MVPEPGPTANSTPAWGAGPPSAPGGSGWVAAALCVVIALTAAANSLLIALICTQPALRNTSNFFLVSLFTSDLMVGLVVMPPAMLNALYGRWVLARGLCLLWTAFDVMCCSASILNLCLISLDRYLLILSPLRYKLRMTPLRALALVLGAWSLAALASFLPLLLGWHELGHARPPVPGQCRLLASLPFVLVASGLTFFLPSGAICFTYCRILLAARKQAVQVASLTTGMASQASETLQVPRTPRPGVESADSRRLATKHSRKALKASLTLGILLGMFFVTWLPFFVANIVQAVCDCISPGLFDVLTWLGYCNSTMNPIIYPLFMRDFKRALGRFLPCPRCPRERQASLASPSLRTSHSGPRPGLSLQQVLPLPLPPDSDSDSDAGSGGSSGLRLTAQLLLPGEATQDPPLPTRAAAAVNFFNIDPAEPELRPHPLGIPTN

| melting point | Ki [1] | Compound |
| --- | --- | --- |
| 131.9 to 132.6 °C | – | NC(=O)[C@@H]1CCCc2cc(Sc3cccc(F)c3)ccc21 [Example 6, (R)-6-(3-Fluoro-phenylsulfanyl)-1,2,3,4-tetrahydro-naphthalene-1-carboxylic acid amide] |
| 152.5 to 153.8 °C | 0.178 nM | CC(=O)NC[C@@H]1CCCc2cc(S(=O)(=O)c3ccccc3)cc(F)c21 [N-((R)-6-Benzenesulfonyl-8-fluoro-1,2,3,4-tetrahydro-naphthalen-1-ylmethyl)-acetamide] |
| – | 0.1 nM | NC(=O)NC[C@@H]1CCCc2cc(S(=O)(=O)c3cccc(F)c3)ccc21 [[(R)-6-(3-Fluoro-phenylsulfonyl)-1,2,3,4-tetrahydro-naphthalen-1-ylmethyl]-urea] |
| 193.5 to 194.4 °C | 0.158 nM | NC(=O)NC[C@@H]1CCCc2cc(S(=O)(=O)c3cccc(F)c3)cc(F)c21 [[(R)-8-Fluoro-6-(3-fluoro-benzenesulfonyl)-1,2,3,4-tetrahydro-naphthalen-1-ylmethyl]-urea] |
